Experimental data from PMC11001709, “Anti-toxoplasma activity and DNA-binding of copper(II) and zinc(II) coordination compounds with 5-nitroimidazole-based ligands” (Journal of Biological Inorganic Chemistry, 2023).
Several values for one entry are separate records, joined by “and”; a condition that tells them apart may be missing. Identical values can stand only once. Values belong to the compound of their own block, whether it stands above or below them.

Columns and labels:
[1] = test system: ct-DNA; test: Competitive displacement of Hoechst 33258 from DNA (fluorescence); format: binding, calf; settings: Hoechst 33258 1.9 µM, [DNA]b = 30 µM, compound 0-50 µM, 1 h
Experimental: (§1) For the UV–Vis, fluorescence and circular dichroism assays the concentration of ct-DNA was determined on a Varian Cary 100 Scan spectrophotometer from the absorption at 260 nm and the corresponding molar absorptivity of 6600 M^−1 cm^−1 (nucleobase concentration). The stock solutions of the coordination compounds and the free ligands were prepared in cacodylate/NaCl buffer (1 mM cacodylic acid and 20 mM sodium chloride) at pH 7.25. The final samples contained a DMSO concentration of 0.2%.
(§2) Emission intensity of the dyes DNA-intercalator ethidium bromide, EB (λexc = 514 nm) and the minor-groove binder Hoechst 33,258 (λexc = 350 nm) was measured on iHR320 HORIBA JOBIN YVON spectrofluorometer. The samples contained 15 µM (in base pairs) of ct-DNA and 75 µM of EB […] in cacodylate/NaCl buffer. The respective dye was incubated for 30 min with ct-DNA to allow its binding to the biomolecule. Subsequently, increasing amounts of coordination compounds (0–50 µM) were added up to a final volume of 2 mL, and the samples were incubated for 1 h at 37 °C. The fluorescence spectra of all samples were recorded at room temperature. The affinity of the compounds for ct-DNA compared to EB was evaluated through the Stern–Volmer quenching constant Ksv, from Eq. 3:3 I0/I=1+Ksvcompound where I0 and I are the emission intensities in absence and the presence of the compound, respectively.
Competitive binding assays were carried out with Hoechst 33,258. This dye binds to B-DNA, especially those with an AT-rich sequence giving a fluorescent signal at 458 nm when excited at 350 nm. As for to the EB assays, DNA (30 µM) was incubated for 30 min with Hoechst 33,258 (1.9 µM) and increasing amounts of the coordination compounds were subsequently added. In all cases, fluorescence quenching was observed (Fig. 9). As previously, the Ksv constants were determined (Fig. 9c and Table 4). The copper(II) compounds show Ksv values in the […] range (Table 4), indicating a groove binding behavior. For the zinc(II) compounds, the Ksv values are two orders of magnitude lower indicating weaker interactions, must likely of electrostatic nature.

[2] = test system: ct-DNA; test: Competitive displacement of ethidium bromide from DNA (fluorescence); format: binding, calf; settings: EB 75 µM, [DNA]b = 30 µM, compound 0-50 µM, 1 h
Experimental: as §1, §2
With the aim to corroborate the binding mode of the coordination compounds with DNA competitive displacement assays were carried out by florescence spectroscopy. The fluorescence of ethidium bromide (EB) increases when it intercalates between DNA base pairs, forming an EB-DNA adduct. Competitive binding assays will lead to a decrease of the fluorescence intensity (λexc = 514 nm; λem = 610 nm) if the interacting molecule is capable of displacing EB from the DNA helix. Solutions containing constant concentrations of DNA (30 µM) and EB (75 µM) were incubated for 30 min. Then the coordination compounds to be tested were added in a concentration in the range of 0–50 µM (corresponding to [complex]/[DNA] ratios between = 0 and 3.3), and fluorescence spectra were recorded after 1 h of incubation.

[3] = Distribution coefficient LogD7.4, shake-flask 1-octanol/MOPS buffer; format: physicochemical; settings: 25 °C; for LogD7.4: octanol/water (MOPS buffer 10^–2 M), 3 h
Experimental: Solutions between 100 and 10 µM of the free ligands (cenz and onz) and the coordination compounds 3–10 were prepared in a MOPS buffer pH 7.4 as the aqueous phase and in 1-octanol as the organic phase. The absorption at 320 nm and 310 nm was determined for the aqueous and organic phase respectively by electronic spectroscopy (UV–Vis). Through a linear regression (concentration vs. absorption) the molar extinction coefficient of each compound in both phases was determined (Table 3). The lipophilicity was calculated in the 1-octanol/water system from the shake flask method using Eq. 1 [39]:1 […] where, Co is the final concentration in the organic phase and Cw is the final concentration in the aqueous phase (MOPS buffer at 10^–2 M pH 7.4). Both phases were presaturated with 50 µM solutions of the free ligands or 500 µM of each coordination compound and their UV spectrum was recorded. Both phases were combined and kept stirring for 3 h at 25 °C and in the absence of light. Subsequently, the mixture was centrifuged at 400g and the concentration in both phases was determined by UV–Vis spectroscopy using the Beer-Lambert law. The assays were performed in triplicate.
The T gondii parasite is an apicomplex organism; it requires a host cell to live, so it is important that the drugs used against the parasite have easy access to the cell. The lipophilicity of a compound is an important physicochemical property to determine its ability to permeate the biological membrane through passive diffusion; which usually is measured from the distribution coefficient logD7.4 = log(Co/Cw), in n-octanol/water. The shake-flask method was used to determine the LogD7.4 values from the molar extinction coefficients of the coordination compounds and the ligands in the two solvents (Table 3).

[4] = test system: ct-DNA; test: Circular dichroism of ct-DNA; format: binding, calf; settings: [DNA]b = 50 µM, [complex]/[DNA] 0-2, 1 h 37 °C
Experimental: as §1
Circular dichroism (CD) spectra were recorded using a JASCO-815 spectropolarimeter, equipped with xenon-arc lamp of 450 W. The sample compartment was air-purged with N2 before use. For the measurements, a quartz cuvette with an optical path of 5 mm was used. A solution of 25 µM (in base pairs) of ct-DNA in cacodylate/NaCl buffer was incubated for 1 h at 37 °C with increasing amounts of coordination compounds (0–50 µM). The CD spectra were recorded at room temperature.
The interaction of small molecules with DNA can modify these CD signals depending on the type of binding. Intercalative interactions increase the intensity of the signals, as the result of an increase of the stability of the B conformation, whereas groove binding or covalent interactions tend to decrease the intensity of these signals, which are moreover displaced. The CD spectra for both ligands and their copper(II) and zinc(II) complexes were obtained at constant concentration of ct-DNA, increasing the complex concentration up to two equivalents ([complex]/[DNA] ratios of 0, 0.2, 0.4, 1, 2) with respect to the nucleobases concentration ([DNA]b = 50 µM).

[5] = test system: pBR322 plasmid DNA; test: Agarose gel electrophoresis, DNA cleavage; format: biochemical
Experimental: Electrophoresis assays were performed in 1.5% agarose gel and 1× TBE buffer using the DNA plasmid pBR322. The plasmid (15 µM base pairs) was incubated with 10 and 50 μM concentrations of the coordination compounds for 1 h at 37 °C in presence and absence of ascorbic acid (50 μM) as reducing agent and hydrogen peroxide (500 µM) as ROS generator in a final volume of 20 μL. The DNA-cleaving compound [Cu(phen)2(H2O)](NO3)2 was used as reference. The samples were loaded into the gel with 4 μL of a loading buffer (30% glycerol, 5 mM xylene cyanol), and electrophoresis was performed in 1× TBE at 100 V for 1 h in a Bio-Rad horizontal tank. Subsequently, the gel was stained with SYBR™ Safe overnight and images were acquired with a Gel Doc EZ Imager instrument (Bio-Rad).
Distinct forms of pBR322 plasmid DNA are commonly observed by gel electrophoresis due to the conformational changes that present distinct electrophoretic mobility: (1) supercoiled DNA (Form I) that migrates faster on the gel, (2) circular nicked (Form II), obtained from a one-strand scission, has a slower migration through the gel and (3) linear form (Form III) is generated when both strands are cleaved and migrates between forms I and II [54]. The interaction of the free ligands and their copper(II) and zinc(II) coordination compounds with pBR322 was investigated in presence of H2Asc (50 μM) as reducing agent and H2O2 (500 μM) as ROS generator. Solutions of 10 and 50 µM of the coordination compounds were incubated with the DNA at 37 °C for 1 h.

[6] = test system: RH tachyzoites of Toxoplasma gondii; test: Viability of extracellular tachyzoites, Sytox Green exclusion test; format: cell-based; settings: 2.5-40 µM, 1 h, PBS
Experimental: RH tachyzoites of Toxoplasma gondii were extracted in PBS solution at pH 7.4 from intraperitoneal fluid of infected CD1 mice on the third day of infection and centrifuged for ten minutes at 260g. Purified parasites were used within 4 h after their isolation.
The viability of the parasites was determined from staining with Sytox Green® fluorescent dye exclusion test. Purified tachyzoites (1 × 10^6) were incubated for one hour at room temperature with PBS solutions of the coordination compounds or the free ligands at concentrations of 40, 20, 10, 5, and 2.5 µM (0.1% DMSO), in a volume final of 1 mL. After the incubation time, the samples were centrifuged for 10 min at 250g, the medium was removed and 20 µL of Sytox Green® was added after 15 min of incubation for differentiate dead parasites in a Neubauer chamber. The assays were performed in triplicate. The half maximal inhibitory concentration (IC50) was calculated by Boltzmann regression analysis and expressed as mean ± standard error of three replicates. Based on the results the tachyzoites were incubated under the same conditions with the coordination compounds [Cu(onz)2Cl2] and [Cu(onz)2Br2] at their respective IC50 values, Sytox Green® was then added, and they were observed by fluorescence microscopy. Sulfadiazine was used as positive control.
Viability assays were performed against tachyzoites of Toxoplasma gondii. The RH strain was used to evaluate the effect of different concentrations (namely, 2.5, 5, 10, 20 and 40 µM) of the coordination compounds and the free 5-nitroimidazole against the tachyzoites. The evaluation were performed in PBS buffer (pH 7.4) with Sytox Green® exclusion test, which allows differentiating dead from live tachyzoites, since the intact cell membrane of alive ones is not stained.

[7] = compound 10 (mM in the source), + H2Asc
[8] = compound 10 (mM in the source), + H2Asc + H2O2
[9] = compound 10 (mM in the source), + H2O2
[10] = compound 10 (mM in the source), no additive
[11] = compound 50 (mM in the source), + H2Asc
[12] = compound 50 (mM in the source), + H2Asc + H2O2
[13] = compound 50 (mM in the source), + H2O2
[14] = compound 50 (mM in the source), no additive

- LogD7.4 [3]: 0.95
SMILES: Cc1n(CC(O)CCl)c([N+](=O)[O-])c[n+]1[Zn-2]([Br])([Br])[n+]1cc([N+](=O)[O-])n(CC(O)CCl)c1C (stereo not shown) [[Zn(onz)2Br2]]
- Hoechst 33258 Ksv [1]: 48000 M⁻¹
- Ethidium bromide Ksv [2]: 2600 M⁻¹
- effect on CD spectrum of ct-DNA (bands at 275 and 245 nm) [4]: spectra changes are minor
- %Damage [5, 7]: 87.3%
- %Nicked [5, 7]: 81.80%
- %Supercoiled [5, 7]: 12.70%
- %Damage [5, 8]: 100.00%
- %Damage [5, 9]: 14.30%
- %Nicked [5, 9]: 4.70%
- %Supercoiled [5, 9]: 85.70%
- %Damage [5, 10]: 3.5%
- %Nicked [5, 10]: 2.60%
- %Supercoiled [5, 10]: 96.50%
- %Damage [5, 11]: 98.2%
- %Nicked [5, 11]: 98.80%
- %Supercoiled [5, 11]: 1.80%
- %Damage [5, 12]: 100.00%
- %Damage [5, 13]: 44.80%
- %Nicked [5, 13]: 29.10%
- %Supercoiled [5, 13]: 55.20%
- %Damage [5, 14]: 11.9%
- %Nicked [5, 14]: 0.40%
- %Supercoiled [5, 14]: 88.10%

SMILES: O.O=[N+]([O-])[O-].O=[N+]([O-])[O-].[Cu+2].c1cnc2c(c1)ccc1cccnc12.c1cnc2c(c1)ccc1cccnc12 [Cu(phen), reference compound]
- %Damage [5, 7]: 100.00% and 94.90%
- %Nicked [5, 7]: 64.80%
- %Supercoiled [5, 7]: 5.10%
- %Damage [5, 8]: 100.00%
- %Damage [5, 9]: 80.70% and 79.00%
- %Supercoiled [5, 9]: 19.30% and 21.00%
- %Supercoiled [5, 10]: 81.70% and 93.20%

- LogD7.4 [3]: 0.86
SMILES: Cc1ncc([N+](=O)[O-])n1CCCl.Cc1ncc([N+](=O)[O-])n1CCCl.[Cl][Zn][Cl] [[Zn(cenz)2Cl2]]
- Hoechst 33258 Ksv [1]: 61000 M⁻¹
- effect on CD spectrum of ct-DNA (bands at 275 and 245 nm) [4]: spectra changes are minor
- %Damage [5, 7]: 17.10%
- %Nicked [5, 7]: 2.90%
- %Supercoiled [5, 7]: 82.90%
- %Damage [5, 8]: 90.90%
- %Nicked [5, 8]: 2.10%
- %Supercoiled [5, 8]: 9.10%
- %Damage [5, 9]: 7.30%
- %Nicked [5, 9]: 6.50%
- %Supercoiled [5, 9]: 92.70%
- %Damage [5, 10]: 20.80%
- %Nicked [5, 10]: 2.50%
- %Supercoiled [5, 10]: 79.20%
- %Damage [5, 11]: 80.60%
- %Nicked [5, 11]: 40.60%
- %Supercoiled [5, 11]: 19.40%
- %Damage [5, 12]: 100.00%
- %Damage [5, 13]: 97.60%
- %Nicked [5, 13]: 81.50%
- %Supercoiled [5, 13]: 2.40%
- %Damage [5, 14]: 18.40%
- %Nicked [5, 14]: 2.20%
- %Supercoiled [5, 14]: 81.60%

- logD at 3 h ([3]; 1-octanol/MOPS buffer, pH 7.4, octanol/water (MOPS buffer 10^–2 M)): 0.72
SMILES: Cc1ncc([N+](=O)[O-])n1CCCl [cenz, 1-(2-chloroethyl)-2-methyl-5-nitro-1H-imidazole]
- activity against T. gondii [6]: did not show activity
- effect on CD spectrum of ct-DNA (bands at 275 and 245 nm) [4]: did not affect the DNA structure
- %Damage [5, 11]: 8.80%
- %Supercoiled [5, 11]: 91.20%
- %Damage [5, 12]: 9.70%
- %Nicked [5, 12]: 4.00%
- %Supercoiled [5, 12]: 90.30%
- %Damage [5, 13]: 7.20%
- %Nicked [5, 13]: 5.90%
- %Supercoiled [5, 13]: 92.80%
- %Damage [5, 14]: 7.50%
- %Supercoiled [5, 14]: 92.50%
- DNA cleavage (in words) ([5]; with and without H2Asc / H2O2): did not provoke any significant DNA cleavage
